Laboratory results: patent US20050059645A1, “Methods for the treatment of male and female sexual dysfunction” (priority 2003, published 2005)
Where two headings read alike, the source gives them in different places.

Tests used:
LH [1] = settings: cited from earlier work
castrated male rats [2] = assay: Male rat copulatory behavior after orchidectomy; type: in vivo
Protocol: Adult male Sprague Dawley rats (300-400 g) from Charles River Hungary Ltd., Godollo, Hungary, were used. Animals were kept in community cages (4 animals/cage) in a climate-controlled room (23±2° C.), with a 14 hour light, 10 hour dark cycle of artificial lighting, using reversed light/dark cycle. […] These hormones were dissolved in sunflower oil.
After establishment of basal behaviors as discussed below, selected animals were orchidectomized via a single midventral incision and were rehoused.
After repeated testing of animals recovered from orchidectomy as discussed below, rats were divided into four groups and treated intravenously, via a single tail vein injection, with one of the following: group 1: control (27% hydroxypropyl-β-cyclodextrin); group 2: 0.03 mg/kg E2-CDS; group 3: 0.3 mg/kg E2-CDS; and group 4: 3 mg/kg E2-CDS.
Mating was observed during the dark cycle in a plexi observation cage in a room where only a dim red light was on. The male was placed in the observation cage 5 minutes prior to the female.
The following parameters were then measured: • Mount latency (ML): the time from the introduction of the female to the initial mount or intromission; • Intromission latency (IL): the time from introduction of the female to the first intromission; and • Ejaculatory latency (EL): the time from the first intromission to ejaculation.
Sessions were considered negative if IL exceeded 15 minutes.
To establish basal behavior, each male was tested every 5 days until four successive and consistent behavioral patterns were achieved. This pretesting lasted for about four weeks. Approximately half of the animals tested were deemed suitable for orchidectomy.
Twenty-eight days after healing from orchidectomy, the animals were tested again (Day 0) and divided into 4 experimental groups. Only animals displaying ejaculation latencies greater than 15 minutes were included in the study.
Tests of male sexual behavior were conducted 3, 7, 14, 21, 28, 35 and 42 days after drug administration or until the effect disappeared, i.e. until no statistically significant difference was found between groups during two consecutive tests.
Behavioral patterns and related times were recorded manually by skilled observers.
Four weeks following orchidectomy, groups of rats were treated with one of the following drug doses via tail vein injection: E2-CDS 0.03, 0.3, and 3 mg/kg. Blood samples were collected by orbital sinus puncture under light ether anesthesia. The samples were stored at 4° C. for one hour and centrifuged at 1,000 g for 10 minutes. Plasma was separated and stored at −80° C. until assayed. Plasma LH concentrations from individual samples were measured by double antibody radioimmunoassay kits obtained from Amersham Pharmacia Biotech, Rome, Italy. […] The limit of detection was 15 pg/ml.
Behavioral changes were analyzed using the Mann-Whitney U test (Siegel, Nonparametric Statistics for the Behavioral Sciences, New York; McGraw-Hill Book Company, Inc., 1956). The Fisher exact test was used for percentage comparisons (Zar, Biostatistical Analysis, Prentice Hall, Inc., Englewood Cliffs, N.J., 1974). Serum LH data were analyzed for each time and treatment group by analysis of variance (ANOVA) followed by Bonferroni posthoc test.
The testing described above was repeated using a dose of 0.03 mg/kg administered as a single i.v. injection, and a dose of 0.01 mg/kg with daily i.v. administration for 10 days. E2-CDS stock solution (40%) was diluted in 27% HPβCD solution.
The copulatory behavior of E2-CDS treated groups was compared to that of the HPβCD control group at 1, 3, 7, 14, and 21 days after i.v. drug administration in the 0.03 mg/kg group and at 1, 3, 7, 14 and 21 days after initial i.v. drug administration in the 0.01 mg/kg×10 days group.

testosterone [3] = settings: 1 mg/kg i.v., cited from earlier work
LH [4] = settings: cited from earlier work; remark: listed apart in the source
morphine-dependent rats = settings: cited from earlier work
castrated male rats [5] = settings: cited from earlier work
LH [6] = settings: cited from earlier work; remark: listed apart in the source
testosterone [7] = assay: Phase I repeated buccal dosing in postmenopausal women: serum testosterone; type: in vivo, human; settings: for testosterone level exceeding baseline: 72 hours after last dose
Protocol: Even more recently, in a Phase I clinical study of postmenopausal women, two different administration regimens of a 2.86 mg E2-CDS buccal delivery tablet were evaluated for safety and effects on hormone levels. The subjects were 12 healthy postmenopausal volunteers, divided into two groups of six. In Group A, women were dosed once daily for 10 days (10 doses); in Group B, women were dosed once every other day for 13 days (7 doses).

[8] = female, human, in vivo, 2.5 mg
Text: A brief evaluation of the results follows:
One explanation for this difference might be the difference in the dissolution (and buccal residence) time of the two formulations used in these two different studies.

[9] = 3.0 mg/kg single i.v., days 14, 21 and 28

## CN1C=CCC(C(=O)O[C@H]2CC[C@H]3[C@@H]4CCc5cc(O)ccc5[C@H]4CC[C@]23C)=C1 [E2-CDS, 17β-[(1-methyl-1,4-dihydro-3-pyridinyl)carbonyloxy]estra-1,3,5(10)-trien-3-ol]
LH [1]; 1280 μg single i.v. dose group
  effects on plasma LH: substantial and sustained decreases
LH [1]; 10-40 μg single i.v. dose group
  effects on plasma LH: Minimal effects
LH [1]; 80-640 μg single i.v. dose group
  effects on plasma LH: threshold effects
LH [1]; single 1280 μg i.v. dose, one post-menopausal volunteer
  time through which LH was lowered in a clinically meaningful way: 96 h
Castrated male rats [2]; 0.03 mg/kg single i.v., first study
  effect on copulatory behavior: no statistically significant effect
Castrated male rats [2]; 0.03 mg/kg single i.v., repeated study
  sexual activity: improved sexual activity, but it was not statistically significant in any observations
Castrated male rats [2]; 0.3 mg/kg single i.v.
  mount frequency: significantly increased on day 7
  mount latency: sharply reduced from day 7 through day 28
Castrated male rats [2]; 3.0 mg/kg single i.v.
  intromission performance: improved in a statistically significant manner from day 14 through day 28
  mount latency: sharply reduced from day 7 through day 28
Castrated male rats [2]; [9]
  intromission frequency: statistically significant increase in intromission frequency
  intromission latency: decrease in intromission latency
Castrated male rats [2]; 0.3 and 3.0 mg/kg single i.v.
  effect on re-establishment of copulatory behavior: significant at doses of 0.3 and 3.0 mg/kg through day 28
Testosterone [3]; one day after treatment
  decrease of serum testosterone levels: 99%
Testosterone [3]; through 14 days post-treatment
  suppression of serum testosterone: more than 96%
LH [4]; 3 mg/kg single i.v., 12, 18 and 24 days post-treatment
  LH levels: remained very significantly reduced
LH [4]; castrated male rats, 3 mg/kg i.v. studies
  duration of suppression of LH: at least 24 days
morphine-dependent rats; 1 mg/kg i.v. once weekly for three weeks, tested one week after last injection
  naloxone-induced rise in TST: significantly attenuated
morphine-dependent rats; single 1 mg/kg i.v., tested one week after injection
  attenuation of naloxone-induced rise in TST: 25%
Castrated male rats [5]; 3 mg/kg i.v. (Anderson '911 patent)
  masculine sexual behavior: stimulated mounting behavior, increased intromission behavior and reduced both mount latency and intromission latency
Castrated male rats [5]; 3 mg/kg single tail vein injection in DMSO (Anderson 1987)
  ejaculatory behavior: ejaculatory behavior was not restored
Castrated male rats [5]; single i.v. dose of 3 mg/kg (Anderson '911 patent)
  duration of improved masculine sexual behavior: 28 days
LH [6]; 0.1 mg/kg i.v. in 20% (w/v) HPβCD, castrated female rats (Brewster 1988)
  duration of LH suppression: 18 days
LH [6]; 0.5 mg/kg single i.v., day 12 (Estes 1987, Experiment 3)
  LH inhibition: heterogeneous results
LH [6]; 0.5 mg/kg single i.v., day 12 or 18 (Estes 1987, Experiment 4)
  LH compared to equimolar estradiol 17-valerate: significantly decreased by E2-CDS compared to estradiol valerate
LH [6]; 1.0 mg/kg i.v. single and multiple weekly doses (Rahimy 1991)
  plasma LH: significantly suppressed for single and multiple doses
LH [6]; 2 mg/kg single i.v., day 12 (Estes 1987, Experiment 3)
  serum LH decrease compared to vehicle: 75%
LH [6]; 5 mg/kg single i.v., day 12 (Estes 1987, Experiment 3)
  serum LH decrease compared to vehicle: 91%
LH [6]; multiple i.v. injections (7, every two days) 10 to 333 μg/kg (Anderson 1988)
  reduction in serum LH: 32-76%
LH [6]; single i.v. dose 10 μg/kg (Anderson 1988)
  reduction in serum LH: no effect
LH [6]; single i.v. dose 33 to 333 μg/kg, 2 days before sacrifice (Anderson 1988)
  reduction in serum LH: 39-52%
Testosterone [7]; Group A
  testosterone level exceeding baseline: 14%
Testosterone [7]; Group B
  testosterone level exceeding baseline: 28%
Testosterone [7]; day 1, Group A
  time to reach minimum testosterone level: 6.5 ± 11.7 h
Testosterone [7]; day 1, Group B
  mean testosterone AUC24 lower than baseline AUC24: 23.0%
  time to reach minimum testosterone level: 7.3 ± 11.3 h
[8]
  Tmax of E2: 2 h
  average Cmax of E2: 0.1534 ng/mL
